Earlier results on two compounds are cited in US20140329781A1, “METHODS FOR TREATING CARDIOVASCULAR DISORDER” (WOCKHARDT LIMITED, priority 2011, published 2014).

For data set [1] the following is noted: water.
The target of data set [2] is albumin (Homo sapiens, UniProt P02768).

The structures appear in SMILES notation.

Sequence of albumin (P02768 25-609, species assumed): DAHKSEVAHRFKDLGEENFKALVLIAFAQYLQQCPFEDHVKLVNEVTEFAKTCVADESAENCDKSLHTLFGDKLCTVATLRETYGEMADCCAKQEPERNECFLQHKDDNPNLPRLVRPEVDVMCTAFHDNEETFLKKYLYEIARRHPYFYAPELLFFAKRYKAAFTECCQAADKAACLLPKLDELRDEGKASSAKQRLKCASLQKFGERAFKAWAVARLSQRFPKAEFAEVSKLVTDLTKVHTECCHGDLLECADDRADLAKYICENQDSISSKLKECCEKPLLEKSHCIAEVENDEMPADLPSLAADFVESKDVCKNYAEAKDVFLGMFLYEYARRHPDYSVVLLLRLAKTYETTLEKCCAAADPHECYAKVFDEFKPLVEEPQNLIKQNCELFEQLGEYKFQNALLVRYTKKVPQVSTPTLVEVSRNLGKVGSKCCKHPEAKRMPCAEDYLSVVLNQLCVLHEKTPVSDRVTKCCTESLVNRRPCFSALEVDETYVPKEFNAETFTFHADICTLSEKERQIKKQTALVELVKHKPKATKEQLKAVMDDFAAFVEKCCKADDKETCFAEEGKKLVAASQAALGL

With `COC(=O)[C@H](c1ccccc1Cl)N1CCc2sccc2C1` [Clopidogrel], the “solubility (in words)” value in data set [1] was “poorly water-soluble”. For the setting “extensive first pass metabolism in the liver”, the “bioavailability (in words)” value was “low”. The “protein bound to albumin” value in data set [2] was 94-98%.

As for `COCCc1ccc(OCC(O)CNC(C)C)cc1` (centres unmarked) [Metoprolol], the “solubility (in words)” value in data set [1] is reported as “highly soluble”. In addition, the bioavailability entry (incomplete due to extensive first pass metabolism) is “about 50%”.
